From patent US5132111A (priority 1990, dated 1992)
Non-standard residues stand in square brackets, D forms with d. Residues, ends and D or L forms follow the SMILES beside them. Nle = CCCC[C@H](N)C(=O)O

Legend:
[1] = system: CRF Target Cells (anterior pituitary cells); assay type: cell-based, rat
[2] = system: gonadotropes (anterior pituitary cells); assay type: cell-based, rat
[3] = system: secretion of ACTH and β-END-LI

Compound | secretion of ACTH (inhibition) [3] | secretion of β-END-LI (inhibition) [3] | other results
H-Ser-Gln-Glu-Pro-Pro-Ile-Ser-Leu-Asp-Leu-Thr-Phe-His -Leu-Leu-Arg-Glu-Val-Leu-Glu-Met-Thr-Lys-Ala-Asp-Gln -Leu-Ala-Gln-Gln-Ala-His-Ser-Asn-Arg-Lys-Leu-Leu-Asp-Ile-Ala-NH2 [CRF] |  |  | ACTH secretion in response to CRF 3 days following pretreatment [1]: 3.7 times the basal rate; ACTH-secretory response to subsequent CRF after pretreatment [1]: does not eliminate the ability of the cells to respond; decrease of ACTH content [1]: 40%; LH-secretory response to GnRH after pretreatment [2]: no effect; effect on LH content [2]: neither CRF nor the cytotoxic conjugate has any significant effect on LH content
CCCC[C@H](N)C(=O)N[C@@H](CC(=O)O)C(=O)N[C@@H](CC(C)C)C(=O)N[C@@H](CO)C(=O)N[C@@H](Cc1ccccc1)C(=O)N[C@@H](Cc1c[nH]cn1)C(=O)N[C@@H](CC(C)C)C(=O)N[C@@H](CC(C)C)C(=O)N[C@@H](CCCNC(=N)N)C(=O)N[C@@H](CCC(=O)O)C(=O)N[C@H](C(=O)N[C@@H](CC(C)C)C(=O)N[C@@H](CCC(=O)O)C(=O)N[C@@H](CCSC)C(=O)N[C@@H](C)C(=O)N[C@@H](CCCNC(=N)N)C(=O)N[C@@H](C)C(=O)N[C@@H](CCC(=O)O)C(=O)N[C@@H](CCC(N)=O)C(=O)N[C@@H](CC(C)C)C(=O)N[C@@H](C)C(=O)N[C@@H](CCC(N)=O)C(=O)N[C@@H](CCC(N)=O)C(=O)N[C@@H](C)C(=O)N[C@@H](Cc1c[nH]cn1)C(=O)N[C@@H](CC(C)C)C(=O)N[C@@H](CC(N)=O)C(=O)N[C@@H](CCCNC(=N)N)C(=O)N[C@@H](CCCNC(=N)N)C(=O)N[C@@H](CC(C)C)C(=O)N[C@@H](CCSC)C(=O)N[C@@H](CCC(=O)O)C(=O)N[C@H](C(=O)N[C@H](C(N)=O)[C@@H](C)CC)[C@@H](C)CC)C(C)C (H-[Nle]DLSFHLLREVLEMARAEQLAQQAHLNRRLMEII-NH2) | inhibits | inhibits | 
H-DLTFHLLREVLEMARAEQLAQQAHSNRRLMEII-NH2 [[Arg^36]-rCRF (9-41)] | inhibits |  | 
H-IDLTFHLLRNMIEMARNENQREQAGLNRRYLDEV-NH2 [[Arg^36]-Carp Urotensin I(8-41)] | inhibits | inhibits | 
CCCC[C@H](NC(=O)[C@H](CCC(=O)O)NC(=O)[C@H](CC(C)C)NC(=O)[C@H](CCCC)NC(=O)[C@H](CCC(=O)O)NC(=O)[C@H](CCCNC(=N)N)NC(=O)[C@H](CC(C)C)NC(=O)[C@H](CC(C)C)NC(=O)[C@H](Cc1c[nH]cn1)NC(=O)[C@H](Cc1ccccc1)NC(=O)[C@@H](NC(=O)[C@@H](N)CC(C)C)[C@@H](C)O)C(=O)N[C@@H](C)C(=O)N[C@@H](CCCNC(=N)N)C(=O)N[C@@H](C)C(=O)N[C@@H](CCC(=O)O)C(=O)N[C@@H](CCC(N)=O)C(=O)N[C@@H](CCC(=O)O)C(=O)N[C@@H](C)C(=O)N[C@@H](CCC(=O)O)C(=O)N[C@@H](CCC(N)=O)C(=O)N[C@@H](C)C(=O)N[C@@H](C)C(=O)N[C@@H](CC(C)C)C(=O)N[C@@H](CC(N)=O)C(=O)N[C@@H](CCCNC(=N)N)C(=O)N[C@@H](CC(C)C)C(=O)N[C@@H](CC(C)C)C(=O)N[C@@H](CC(C)C)C(=O)N[C@@H](CCC(=O)O)C(=O)N[C@@H](CCC(=O)O)C(=O)N[C@@H](C)C(N)=O [[Nle^18,21]-AAHC(10-41)] (H-LTFHLLRE[Nle]LE[Nle]ARAEQEAEQAALNRLLLEEA-NH2) | inhibits | inhibits | 
H-DLTFHLLREVAEMTRAEQLAQQAHSNRRLMEII-NH2 [[Ala^19, Thr^22, Arg^36]-hCRF (9-41)] | inhibits | inhibits | 
H-Asp-CML-Thr-Leu-Glu -CML-CML-Arg-Glu-Met-CML-Glu-Met-CMA-Arg-Ala-Glu-Gln-CML -Ala-Glu-Gln-Ala-CMA-CML-Asn-Arg-Leu-CML-Leu-Glu-Glu-CMA-NH2 | inhibits | inhibits | 
H-LTFHLLREVLEMARAEQLAQQAHSNRRLMEII-NH2 [[Arg^36]-rCRF(10-41)] | inhibits | inhibits | 
H-DLTFHLLREMLEMARAEQEAEQAALNRLLLEEA-NH2 [AAHC(9-41)] | inhibits |  | 
